The results in this text go back to ChEMBL document CHEMBL1649467, “Impact of human serum albumin on oritavancin in vitro activity against enterococci” (Antimicrob Agents Chemother, 2009).

Values after ≈ are worked out from the molar mass of the structure shown.

The test system of data set [1] is Enterococcus faecium. As to the kind of experiment: Antimicrobial activity against vancomycin-resistant Enterococcus faecium 1119175 by broth dilution method. Format: functional.
In data set [2] the test system is Enterococcus faecalis. As to the kind of experiment: Bactericidal activity against vancomycin-resistant Enterococcus faecalis ATCC 51299 expressing vanB gene assessed as change in bacterial count at 4 ug/ml by time-kill assay. Format: functional.
Data set [3] has as its system Enterococcus faecium. As to the kind of experiment: Antimicrobial activity against vancomycin-resistant Enterococcus faecium ATCC 51559 by broth dilution method. Format: functional.
The test system of data set [4] is Enterococcus faecium. The data set is described as follows: Bactericidal activity against vancomycin-resistant Enterococcus faecium ATCC 51559 expressing vanA gene assessed as change in bacterial count at 16 ug/ml by time-kill assay. Format: functional.
The test system of data set [5] is Enterococcus faecium. The data set is described as follows: Bactericidal activity against vancomycin-resistant Enterococcus faecium 1119175 expressing vanB gene assessed as change in bacterial count at 4 ug/ml by time-kill assay. Format: functional.
In data set [6] the test system is Enterococcus faecium. The data set is described as follows: Bactericidal activity against vancomycin-resistant Enterococcus faecium ATCC 51559 expressing vanA gene assessed as change in bacterial count at 4 ug/ml by time-kill assay. Format: functional.
The subject of data set [7] is Enterococcus faecium. As to the kind of experiment: Bactericidal activity against vancomycin-resistant Enterococcus faecium 1059060 expressing vanA gene assessed as change in bacterial count at 4 ug/ml by time-kill assay. Format: functional.
The subject of data set [8] is Enterococcus faecium. As to the kind of experiment: Bactericidal activity against vancomycin-resistant Enterococcus faecium 1119175 expressing vanB gene assessed as change in bacterial count at 16 ug/ml by time-kill assay. Format: functional.
Data set [9] concerns Enterococcus faecium. The data set is described as follows: Bactericidal activity against vancomycin-resistant Enterococcus faecium 1059060 expressing vanA gene assessed as change in bacterial count at 16 ug/ml by time-kill assay. Format: functional.
Data set [10] relates to Enterococcus faecalis. As to the kind of experiment: Bactericidal activity against vancomycin-resistant Enterococcus faecalis 1058946 expressing vanA gene assessed as change in bacterial count at 4 ug/ml by time-kill assay. Format: functional.
In data set [11] the test system is Enterococcus faecalis. The data set is described as follows: Bactericidal activity against vancomycin-susceptible Enterococcus faecalis ATCC 29212 assessed as change in bacterial count at 4 ug/ml by time-kill assay. Format: functional.
A short description of data set [12]: Cmax in healthy human male at 600 mg, po every 12 hrs by LC/MS/MS analysis. Format: ADME, organism-based. On the set-up: dose 600 mg, route oral. The note with it: in vivo.
The subject of data set [13] is Enterococcus faecium. The data set is described as follows: Antimicrobial activity against vancomycin-resistant Enterococcus faecium ATCC 51559 by broth dilution method in presence of 4% HAS. Format: functional.
In data set [14] the test system is Enterococcus faecalis. The data set is described as follows: Bactericidal activity against vancomycin-susceptible Enterococcus faecalis ATCC 29212 assessed as change in bacterial count at 16 ug/ml by time-kill assay. Format: functional.
The test system of data set [15] is Enterococcus faecalis. The data set is described as follows: Bactericidal activity against vancomycin-resistant Enterococcus faecalis 1058946 expressing vanA gene assessed as change in bacterial count at 16 ug/ml by time-kill assay. Format: functional.
In data set [16] the test system is Enterococcus faecium. The data set is described as follows: Antimicrobial activity against vancomycin-resistant Enterococcus faecium 1059060 by broth dilution method. Format: functional.
In data set [17] the test system is Enterococcus faecalis. The data set is described as follows: Bactericidal activity against vancomycin-resistant Enterococcus faecalis ATCC 51299 expressing vanB gene assessed as change in bacterial count at 16 ug/ml by time-kill assay. Format: functional.
Data set [18] concerns Enterococcus faecium. As to the kind of experiment: Antimicrobial activity against vancomycin-resistant Enterococcus faecium 1059060 by broth dilution method in presence of 4% HSA. Format: functional.
In data set [19] the test system is Enterococcus faecium. As to the kind of experiment: Antimicrobial activity against vancomycin-resistant Enterococcus faecium 1119175 by broth dilution method in presence of 4% HSA. Format: functional.

For `CC(=O)NC[C@H]1CN(c2ccc(N3CCOCC3)c(F)c2)C(=O)O1` [LINEZOLID], the MIC stood at 2 µg/mL (≈ 5.93 µM) with Enterococcus faecium [1]; 1 µg/mL (≈ 2.96 µM) against Enterococcus faecium [3]; 2 µg/mL in the data set with Enterococcus faecium [13]; 1 µg/mL (≈ 2.96 µM) with Enterococcus faecium [16]; 1 µg/mL in the data set on Enterococcus faecium [18]; 2 µg/mL with Enterococcus faecium [19]. The log10CFU/ml was -0.5 with Enterococcus faecalis [2]; -2 in the data set with Enterococcus faecium [4]; 0.2 in the data set on Enterococcus faecium [5]; -0.63 in the data set on Enterococcus faecium [6]; -0.35 in the data set with Enterococcus faecium [7]; -0.72 in the data set on Enterococcus faecium [8]. Also, the log10CFU/ml with Enterococcus faecium [9] is given as -0.42; in the data set with Enterococcus faecalis [10], 0.78; in the data set on Enterococcus faecalis [11], 0.13; with Enterococcus faecalis [14], 0.11; in the data set on Enterococcus faecalis [15], 0.08; in the data set on Enterococcus faecalis [17], -0.35. The compound also had a Cmax in data set [12] of 16000 ng/mL.
